Reference: paper PMC6953623 (Bioorganic & medicinal chemistry letters, 2019)

Target: AChE (Homo sapiens, UniProt P22303)
Format: biochemical
Conditions: result in words

Sequence of AChE (P22303 32-614): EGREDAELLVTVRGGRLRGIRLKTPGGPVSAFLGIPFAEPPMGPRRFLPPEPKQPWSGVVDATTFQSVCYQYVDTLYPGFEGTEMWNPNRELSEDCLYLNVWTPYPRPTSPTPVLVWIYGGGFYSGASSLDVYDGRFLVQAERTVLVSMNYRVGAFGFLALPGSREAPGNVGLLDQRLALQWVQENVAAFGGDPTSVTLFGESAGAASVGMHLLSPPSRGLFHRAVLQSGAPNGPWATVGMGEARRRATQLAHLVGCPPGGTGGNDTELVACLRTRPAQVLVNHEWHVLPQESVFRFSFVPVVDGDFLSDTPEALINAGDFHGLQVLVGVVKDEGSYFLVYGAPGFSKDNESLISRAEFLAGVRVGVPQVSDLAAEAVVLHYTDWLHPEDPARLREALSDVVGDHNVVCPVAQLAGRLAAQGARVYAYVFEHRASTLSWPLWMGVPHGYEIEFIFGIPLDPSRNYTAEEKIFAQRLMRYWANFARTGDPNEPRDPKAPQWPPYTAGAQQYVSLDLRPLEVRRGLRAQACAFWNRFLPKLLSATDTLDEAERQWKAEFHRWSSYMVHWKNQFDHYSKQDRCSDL

## Cc1cc(CSCCc2nc3ccccc3[nH]2)c(O)c(CSCCc2nc3ccccc3[nH]2)c1 [NSC620023]
  inhibition of AChE: no inhibition of AChE at all
